The subject of this assay is Naïve T cells from WT and KO mice. As to the kind of experiment: Th1 differentiation assay with PI3K/Akt pathway inhibitors, IFN-γ expression by flow cytometry. The assay is classed as cell-based, mouse. Conditions: Th1 conditions, all concentrations. As to the method: (A) Naïve T cells from WT and KO mice were cultured under Th1 conditions for three days in the presence of PI3K inhibitors (Akti, LY294002 and IC-87114), re-stimulated with PMA/Ionomycin and analyzed for IFNγ and CD25 expression. (B) Quantitation of A. p values were calculated using two-way ANOVA with Sidak's multiple comparisons test. p values are represented with the following symbols: *0.01-0.05, **0.001-0.01, ***<0.001. Data are representative of more than three experiments.
CD4 T cells from spleens and lymph nodes of naïve mice were purified by magnetic separation using the Miltenyi Biotec naïve CD4 T cell isolation kit (Cat#130-104-453). The purity of the final cell population was >90%. […] Cells were then harvested and analyzed by flow cytometry.
In order to determine whether the difference in Th1 polarization was actually due to the absence of PI3K modulation by TrIP, the Th1 differentiation assay was performed on WT and KO T cells with the addition of moderate concentrations of PI3K/Akt pathway inhibitors. […] At the end of culture, cells were re-stimulated with PMA/Ionomycin and evaluated by flow cytometry for IFN-γ expression. […]
(In general: A flow cytometer gives signals particle by particle.)

Turning to `Cc1ccccc1-n1c(Cn2cnc3c(N)ncnc32)nc2cccc(C)c2c1=O` [IC-87114], the “relative potency among the three inhibitors for IFN-γ production” value is on record as “most potent inhibitor at all concentrations”.

Source of the values: patent US20180250393A1, “MANIPULATION OF T CELL AND MAST CELL ACTIVATION BY PIK3IP1” (UNIVERSITY OF PITTSBURGH-OF THE COMMONWEALTH SYSTEM OF …, priority 2017, published 2018).
